Experimental data reported in patent US11998632B2, “Oral cannabinoid compositions and methods for treating neuropathic pain” (Avicanna Inc., priority 2019, dated 2024).

Assay: Assessment of stability: cannabinoid concentrations by HPLC on stored capsules
Conditions: 40-day incubation at 40° C., dark conditions

**Q.** Which “stability of cannabinoid in the formulations (HPLC)” value does the source give for `C=C(C)[C@@H]1CCC(C)=C[C@H]1c1c(O)cc(CCCCC)cc1O` [CBD, cannabidiol] here?
**A.** remains stable

**Q.** Which “stability of cannabinoid in the formulations (HPLC)” value does the source give for `CCCCCc1cc(O)c2c(c1)OC(C)(C)[C@@H]1CCC(C)=C[C@@H]21` [THC, Tetrahydrocannabinol] here?
**A.** degrades significantly
